Here are results for four molecules from patent publication US20010041733A1, “Heterocyclic ester and amide hair growth compositions and uses” (GPI NIL Holdings, Inc., priority 1998, published 2001).

Test [1] has as its target FKBP12 (Homo sapiens, UniProt P62942). As to the kind of experiment: Ki test procedure: inhibition of peptidyl-prolyl isomerase (rotamase) activity, chymotrypsin-coupled assay. It is filed as biochemical. The note with it: substrate N-succinyl-Ala-Ala-Pro-Phe-p-nitroanilide, read-out: Ki (apparent). The text has this: The compounds used in the inventive methods and pharmaceutical compositions have an affinity for the inhibition of the prolyl peptidyl cis-trans isomerase activity of FKBP may be measured as an indicator of this affinity.
Inhibition of the peptidyl-prolyl isomerase (rotamase) activity of the compounds used in the inventive methods and pharmaceutical compositions can be evaluated by known methods described in the literature (Harding et al., Nature, […], 341:758-760; Holt et al. J. Am. Chem. Soc., 115:9923-9938). These values are obtained as apparent K1's and are presented for representative compounds in TABLE III.
The cis-trans isomerization of an alanine-proline bond in a model substrate, N-succinyl-Ala-Ala-Pro-Phe-p-nitroanilide, is monitored spectrophotometrically in a chymotrypsin-coupled assay, which releases para-nitroanilide from the trans form of the substrate. The inhibition of this reaction caused by the addition of different concentrations of inhibitor is determined, and the data is analyzed as a change in first-order rate constant as a function of inhibitor concentration to yield the apparerent K1, values. […]
The absorbance at 390 nm versus time is monitored for 90 seconds using a spectrophotometer and the rate constants are determined from the absorbance versus time data files.

Test [2] relates to C57 black 6 mice. In words: In vivo hair generation test, Experiment A. The conditions noted are these: 30 μM topical in 20% propylene glycol, 3 applications, after six weeks. The text has this: Care was taken not to nick or cause abrasion to the underlaying dermal layers. The animals were in anagen growth phase, as indicated by the pinkish color of the skin. […] Hair growth was quantitated by the percent of shaved area covered by new hair growth during this time period.

For test [3], the system named is C57 black 6 mice. As to the kind of experiment: In vivo hair generation test, Experiment B. The conditions noted are these: one micromole per milliliter topical, three times per week, 14 days after initiation of treatment. The method, then:
Care was taken not to nick or cause abrasion to the underlying dermal layers. The animals were in a […] growth phase when shaved. […] The animals were treated three times per week, and hair growth was evaluated 14 days after initiation of treatment.

Sequence of FKBP12 (P62942 whole entry): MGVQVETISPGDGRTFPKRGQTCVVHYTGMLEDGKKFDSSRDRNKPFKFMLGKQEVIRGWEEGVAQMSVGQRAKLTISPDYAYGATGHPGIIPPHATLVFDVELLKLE

`CCC(C)(C)C(=O)C(=O)N1CSC[C@@H]1C(=O)OCCCc1cccnc1` [Compound 2, 3-(3-pyridyl)-1-propyl (2S)-1-(3,3-dimethyl-1,2-dioxopentyl)-2-(4-thiazolidine) carboxylate]: in test [1], the Ki was 638 nM.

For `CCC(C)(C)C(=O)C(=O)N1CSC[C@@H]1C(=O)OCCCc1ccccc1` [Compound 1, 3-phenyl-1-propyl (2S)-1-(3,3-dimethyl-1,2-dioxopentyl)-2-(4-thiazolidine)carboxylate], the Ki in test [1] is 215 nM.

Take `CCC(C)(C)C(=O)C(=O)N1CCC[C@H]1C(=O)OCCCc1cccnc1` [GPI 1046]: the “hair regrowth in the shaved area” value in test [2] was “essentially complete hair regrowth”.

Regarding `CCC(C)(C)C(=O)C(=O)N1CCS[C@@H]1C(=O)OCCCc1cccnc1` [GPI 1572], the “hair growth (relative hair growth index, FIG. 5)” value in test [3] is on record as “dramatic hair growth”.
